These results are taken from PMC10420963, “Exploring Novel Drug Combinations: The Therapeutic Potential of Selanyl Derivatives for Leishmania Treatment” (Molecules, 2023).

A word on the IC50: it is the concentration that gives 50% inhibition. One may read the CC50 as the concentration that lowers cell viability or growth by half.

The test system of data set [1] is L. major promastigotes. Nature of the data set: Leishmanicidal activity against L. major promastigotes (MTT assay). Type of data set: cell-based, Leishmania major. The note with it: for IC50: Leishmania major, L. major promastigotes, 48 h incubation, MTT. The procedure: (§1) Promastigotes. L. major (clone VI, MHOM/IL/80) and L. infantum (clone, BCN-150) parasites were cultured at 26 °C under continuous shaking in M199 1× medium (Sigma, St. Louis, MO, USA) supplemented with heat-inactivated fetal bovine serum (FBS), 25 mM HEPES (pH 7), 0.1 mM adenine, 0.0005% (w/v) haemin, […], 0.0005% (w/v) biotin, 100 IU/mL penicillin and […]. For each experiment, the culture medium was changed everyday in order to achieve parasite in exponential growth phase.
(§2) In order to determine the leishmanicidal activity of the compounds obtained in this study, promastigotes of L. major and L. infantum strains were seeded in 96-well plates (3 ×·10^6 parasite/mL) in exponential growth phase at increasing concentrations (1–500 μM) of the compounds and maintained at 26 °C. After 48 h of incubation, the IC50 was determined by MTT assay. The absorbance was measured in a MultiskanEX photometric plate reader for microplates at 540 nm. Data were obtained from three independent experiments performed in triplicate.
A general note: Formazan colour is commonly taken as a measure of viable cells.

Data set [2] deals with L. infantum promastigotes. Description: Leishmanicidal activity against L. infantum promastigotes (MTT assay). The data set is classed as cell-based, Leishmania infantum. The procedure:
as §1, §2

A short description of data set [3]: Cytotoxicity in PMA-differentiated THP-1 macrophages (MTT assay). Type of data set: cell-based. The note with it: human, pH 7.2, 48 h of treatment, read-out: THP-1 Cells CC50. As for the experimental part:
Human monocytic leukemia cell line THP-1 cells were cultured in RMPI 1640 medium (Gibco, Leiden, The Netherlands) supplemented with 10% heat-inactivated FBS, 5% penicillin/streptomycin, 1 mM HEPES, 2 mM glutamine at pH 7.2 at 36 °C and 5% CO2.
THP-1 cells were seeded at a concentration of 8 × 10^5 cells/mL in 96-well plates and incubated for 24 h with phorbol 12-myristate 13-acetate (PMA) (10 ng/mL) supplemented RPMI 1640 (Gibco, Leiden, The Netherlands). After 24 h, the culture medium was removed, and the cells were treated with the synthesized compounds at different concentrations ranging from 1–500 μM at 37 °C and 5% CO2. After this time, the MTT assay was performed. The cytotoxic concentration values (CC50) were obtained by fitting the data to a sigmoid dose-inhibition curve using GraphPad Prism 7.0 software (GraphPad Software Inc., San Diego, CA, USA). MIL and PMN were used as reference drugs for comparison.

In data set [4] the test system is L. infantum promastigotes. Nature of the data set: Drug combination (FICI) assay on L. infantum promastigotes. Type of data set: cell-based, Leishmania infantum. The note with it: for ƩFICI50: 48 h; for ƩFICI: combined with the reference drugs AMB, MIL, and PMN (bound for all three). As for the experimental part:
To determine the nature of the interaction, it is crucial to choose the appropriate doses. Thus, the evaluation of the combination was carried out by a dose–response linear dilution experiment, for which the IC50 value of each substance alone was determined and multiplied by 0.2×, 0.4×, 0.6×, 0.8×, 1×, 1.2×, 1.4×, 1.6×, 1.8×, and 2× times, in order to obtain the different dilutions. […] Compound A6 stood out in this experiment, with synergistic interactions in combination with MIL (ƩFICI = 0.44), borderline synergistic interaction combined with PMN (ƩFICI = 0.54), but without interaction when combined with AMB (ƩFICI = 0.70).
The fractional inhibitory concentration index (FICI) was used to describe the interaction between the lead compounds A4–A6 and A8 with AmB, PMN and MIL. The compounds were studied in vitro against L. infantum promastigotes after 48 h of treatment. For this purpose, different increasing concentration ratios (0.2×, 0.4×, 0.6×, 0.8×, 1×, 1.2×, 1.4×, 1.6×, 1.8× and 2× times the IC50 of the compounds) were established. Finally, synergy was defined as FICI < 0.5, non-interaction as 0.5 < FICI < 4, and antagonism as FICI > 4. FICI values were obtained from four independent experiments.

Where [5] appears, read: Leishmania infantum, 48 h, L. infantum promastigotes, 48 h incubation, MTT, compound alone, read-out: IC50.

Structures are written as SMILES. Like-named read-outs stand apart in the source and are kept apart here.

As to `COC(=O)CSC(=O)C1CC1` [D5, Methyl 2-((cyclopropanecarbonyl)thio)acetate], the half-maximal inhibitory concentration (IC50) was 81.8 µM in data set [1] and 68.7 µM in data set [2] (setting [5]).
`O=C(O)C[Se]C(=O)C1CCC1` [A6, 2-((cyclobutanecarbonyl)selanyl)acetic acid]: in data set [1] (L. major, from SI values), the “times more selective than MIL” value turned out to be 15 and the “times more selective than PMN” value turned out to be 5. Besides, the CC50 at 48 h in data set [3] was found to be 178 ± 10.2 µM. Also, in data set [2] (L. infantum, from SI values), the “fold more selective than MIL” value was found to be 28 fold and the “fold more selective than PMN” value was 5 fold. Besides, in data set [4] (combination with AmB), the Effect result was “Non interaction (non-interaction as 0.5 < FICI < 4)” and the ƩFICI50 worked out at 0.70. In data set [4] (combination with MIL), the Effect entry is given as “Synergy (synergy was defined as FICI < 0.5)” and the ƩFICI50 is reported as 0.44. In addition, in data set [4] (combination with PMN), the Effect entry is on record as “Non interaction (non-interaction as 0.5 < FICI < 4)” and the ƩFICI50 is 0.54.
With `O=C(O)C[Se]C(=O)C1CCCCC1` [A8, 2-((cyclohexanecarbonyl)selanyl)acetic acid], the half-maximal cytotoxic concentration (CC50) at 48 h in data set [3] amounted to 147 ± 12.5 µM. In addition, the half-inhibitory concentration (IC50) is 39.9 µM in data set [2] (L. infantum promastigotes, 48 h incubation, MTT, compound alone, read-out: IC50) and less than 40 µM in data set [2] (setting [5]). In addition, the Effect result in data set [4] (combination with AmB) is recorded as “Non interaction (non-interaction as 0.5 < FICI < 4)”; in data set [4] (combination with MIL), “Synergy (synergy was defined as FICI < 0.5)”; in data set [4] (combination with PMN), “Non interaction (non-interaction as 0.5 < FICI < 4)”. The results for the ƩFICI50 in data set [4] (combination with AmB), in data set [4] (combination with MIL) and in data set [4] (combination with PMN) were 0.52, 0.40 and 0.52, respectively.
Consider `O=C(O)CSC(=O)C1CC1` [B5, 2-((cyclopropanecarbonyl)thio)acetic acid], for which the IC50 in data set [2] (setting [5]) is 87.6 µM.
Turning to `CCCCCCCCCCCCCCCCOP(=O)([O-])OCC[N+](C)(C)C` [MIL, miltefosine, reference compound], in data set [3], the half-maximal cytotoxic concentration (CC50) at 48 h came out at 13.3 ± 2.8 µM. Further, the half-maximal inhibitory concentration (IC50) in data set [2] (setting [5]) came to 31.9 µM.
Take `CCCCCCC(=O)[Se]CC(=O)OC` [C4, Methyl 2-(heptanoylselanyl)acetate]: in data set [2] (Leishmania infantum, 48 h), the IC50 was 116 µM.
Consider `CCCCCCC(=O)[Se]CC(=O)O` [A4, 2-(heptanoylselanyl)acetic acid], for which the cytotoxic concentration (CC50) at 48 h in data set [3] amounted to 173 ± 8.6 µM. The concentration for half-maximal inhibition (IC50) in data set [2] (setting [5]) was less than 40 µM. Further, the Effect result in data set [4] (combination with AmB), in data set [4] (combination with MIL) and in data set [4] (combination with PMN) was “Non interaction (non-interaction as 0.5 < FICI < 4)” in each case. Besides, the ƩFICI50 in data set [4] (combination with AmB) was 0.71; in data set [4] (combination with MIL) it was 0.68; in data set [4] (combination with PMN), 0.68. Besides, the ƩFICI in data set [4] was more than 0.60.
In the case of `COC(=O)CSC(=O)C1CCC1` [D6, Methyl 2-((cyclobutanecarbonyl)thio)acetate], the half-maximal inhibitory concentration (IC50) was determined as 83.4 µM in data set [1] and 95.3 µM in data set [2] (setting [5]).
For the compound `NC[C@@H]1O[C@H](O[C@H]2[C@@H](O)[C@H](O[C@@H]3[C@@H](O)[C@H](N)C[C@H](N)[C@H]3O[C@H]3O[C@H](CO)[C@@H](O)[C@H](O)[C@H]3N)O[C@@H]2CO)[C@H](N)[C@@H](O)[C@@H]1O` [PMN, paromomycin, reference compound], the CC50 at 48 h in data set [3] came out at 39 ± 13.7 µM.
Consider `O=C(O)C[Se]C(=O)C1CC1` [A5, 2-((cyclopropanecarbonyl)selanyl)acetic acid], for which the concentration for half-maximal inhibition (IC50) in data set [1] is 113 µM; in data set [2] (setting [5]) it was less than 40 µM. Moreover, the CC50 at 48 h in data set [3] came to 211 ± 9.3 µM. In addition, the Effect result in data set [4] (combination with AmB), in data set [4] (combination with MIL) and in data set [4] (combination with PMN) was “Non interaction (non-interaction as 0.5 < FICI < 4)” each time. Moreover, the ƩFICI50 in data set [4] (combination with AmB) is listed as 0.70; in data set [4] (combination with MIL) it was 0.98; in data set [4] (combination with PMN) it was 0.61. For the same compound, the ƩFICI in data set [4] is given as more than 0.60.
With `CCCCCCC(=O)SCC(=O)OC` [D4, Methyl 2-(heptanoylthio)acetate], the IC50 was 87.3 µM in data set [1] and 79.2 µM in data set [2] (setting [5]).
